Assay results: paper PMC8231556, “Inhibiting Endothelial Cell Function in Normal and Tumor Angiogenesis Using BMP Type I Receptor Macrocyclic Kinase Inhibitors” (Cancers, 2021)

Experiments:
Assay in all cases: radiometric kinase profiling (33 PanQinase)
Assay type in all cases: biochemical
[1] = molecular target: T1, DAPK1 (Homo sapiens, UniProt P53355); details: read-out: Inhibitory effect (%) DAPK1
T1 construct: purchased Proqinase, Germany
Method: (§1) The kinase inhibition profile of the compounds was determined by testing 96 protein kinases’ activity using a radiometric protein kinase assay (33 PanQinase® Activity Assay, Proqinase, Germany). In brief, 10 µL of non-radioactive ATP solution (in H2O), 25 µL of assay buffer/[γ-33 P]-ATP mixture, 5 µL of 0.1 μM the tested compound in 10% DMSO and 10 µL of enzyme/substrate were mixed in 96-well FlashPlatesTM (Perkin Elmer, Boston, MA, USA). The reaction was conducted at 30 °C for 60 min. To stop the reaction, 50 µL of 2% (v/v) H3PO4 was added into the protein kinase reaction cocktails. After which, with 200 µL 0.9% (w/v) NaCl twice, the incorporation of ^33 Pi (counting of “cpm”) was determined with a microplate scintillation counter (Wallac Microbeta, Boston, MA, USA). All protein kinase assays were performed using a BeckmanCoulter Biomek 2000/SL robotic system (Brea, CA, USA). The residual activity (in %) for each compound was normalized to 100% enzyme activity (untreated control) and background (negative control).

[2] = molecular target: T2, LRRK2 (Homo sapiens, UniProt Q5S007); details: read-out: Inhibitory effect (%) LRRK2
T2 construct: purchased ProQinase (33PanQinase Activity Assay)
Method: as §1

[3] = molecular target: T3, ROCK2 (Homo sapiens, UniProt O75116); details: read-out: Inhibitory effect (%) ROCK2
T3 construct: purchased ProQinase (33PanQinase Activity Assay)
Method: as §1

[4] = molecular target: T4, MAP3K8 (Homo sapiens, UniProt P41279); details: read-out: Inhibitory effect (%) MAP3K8
T4 construct: purchased ProQinase (33PanQinase Activity Assay)
Method: as §1

[5] = molecular target: T5, SRPK1 (Homo sapiens, UniProt Q96SB4); details: read-out: Inhibitory effect (%) SRPK1
T5 construct: purchased ProQinase (33PanQinase Activity Assay)
Method: as §1

[6] = molecular target: T6, RPS6KA1 (Homo sapiens, UniProt Q15418); details: read-out: Inhibitory effect (%) RPS6KA1
T6 construct: purchased ProQinase (33PanQinase Activity Assay)
Method: as §1

[7] = molecular target: T7, LCK (Homo sapiens, UniProt P06239); details: read-out: Inhibitory effect (%) LCK
T7 construct: purchased ProQinase (33PanQinase Activity Assay)
Method: as §1

[8] = molecular target: T8, FYN (Homo sapiens, UniProt P06241); details: read-out: Inhibitory effect (%) FYN
T8 construct: purchased ProQinase (33PanQinase Activity Assay)
Method: as §1

[9] = molecular target: T9, PRKCB1_II (Homo sapiens, UniProt P05771); details: read-out: Inhibitory effect (%) PRKCB1_II
T9 construct: purchased ProQinase (33PanQinase Activity Assay)
Method: as §1

[10] = molecular target: T10, ACVR1 (Homo sapiens, UniProt Q04771); details: read-out: Inhibitory effect (%) ACVR1
T10 construct: purchased Proqinase, Germany
T10 sequence (Q04771 21-509): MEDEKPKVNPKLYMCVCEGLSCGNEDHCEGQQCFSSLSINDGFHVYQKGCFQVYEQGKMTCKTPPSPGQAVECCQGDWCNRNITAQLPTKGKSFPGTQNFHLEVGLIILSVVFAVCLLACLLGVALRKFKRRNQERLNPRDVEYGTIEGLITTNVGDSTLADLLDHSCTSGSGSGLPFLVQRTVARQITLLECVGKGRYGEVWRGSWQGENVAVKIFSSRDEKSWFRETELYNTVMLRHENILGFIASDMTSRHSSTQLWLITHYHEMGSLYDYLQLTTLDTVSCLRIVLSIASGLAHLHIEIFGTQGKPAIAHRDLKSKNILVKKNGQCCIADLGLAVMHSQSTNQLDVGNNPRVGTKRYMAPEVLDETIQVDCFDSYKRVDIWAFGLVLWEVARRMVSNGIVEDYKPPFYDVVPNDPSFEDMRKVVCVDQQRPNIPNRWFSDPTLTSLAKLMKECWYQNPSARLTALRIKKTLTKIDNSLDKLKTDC
Method: as §1

[11] = molecular target: T11, NEK1 (Homo sapiens, UniProt Q96PY6); details: read-out: Inhibitory effect (%) NEK1
T11 construct: purchased ProQinase (33PanQinase Activity Assay)
T11 sequence (Q96PY6 1-1258): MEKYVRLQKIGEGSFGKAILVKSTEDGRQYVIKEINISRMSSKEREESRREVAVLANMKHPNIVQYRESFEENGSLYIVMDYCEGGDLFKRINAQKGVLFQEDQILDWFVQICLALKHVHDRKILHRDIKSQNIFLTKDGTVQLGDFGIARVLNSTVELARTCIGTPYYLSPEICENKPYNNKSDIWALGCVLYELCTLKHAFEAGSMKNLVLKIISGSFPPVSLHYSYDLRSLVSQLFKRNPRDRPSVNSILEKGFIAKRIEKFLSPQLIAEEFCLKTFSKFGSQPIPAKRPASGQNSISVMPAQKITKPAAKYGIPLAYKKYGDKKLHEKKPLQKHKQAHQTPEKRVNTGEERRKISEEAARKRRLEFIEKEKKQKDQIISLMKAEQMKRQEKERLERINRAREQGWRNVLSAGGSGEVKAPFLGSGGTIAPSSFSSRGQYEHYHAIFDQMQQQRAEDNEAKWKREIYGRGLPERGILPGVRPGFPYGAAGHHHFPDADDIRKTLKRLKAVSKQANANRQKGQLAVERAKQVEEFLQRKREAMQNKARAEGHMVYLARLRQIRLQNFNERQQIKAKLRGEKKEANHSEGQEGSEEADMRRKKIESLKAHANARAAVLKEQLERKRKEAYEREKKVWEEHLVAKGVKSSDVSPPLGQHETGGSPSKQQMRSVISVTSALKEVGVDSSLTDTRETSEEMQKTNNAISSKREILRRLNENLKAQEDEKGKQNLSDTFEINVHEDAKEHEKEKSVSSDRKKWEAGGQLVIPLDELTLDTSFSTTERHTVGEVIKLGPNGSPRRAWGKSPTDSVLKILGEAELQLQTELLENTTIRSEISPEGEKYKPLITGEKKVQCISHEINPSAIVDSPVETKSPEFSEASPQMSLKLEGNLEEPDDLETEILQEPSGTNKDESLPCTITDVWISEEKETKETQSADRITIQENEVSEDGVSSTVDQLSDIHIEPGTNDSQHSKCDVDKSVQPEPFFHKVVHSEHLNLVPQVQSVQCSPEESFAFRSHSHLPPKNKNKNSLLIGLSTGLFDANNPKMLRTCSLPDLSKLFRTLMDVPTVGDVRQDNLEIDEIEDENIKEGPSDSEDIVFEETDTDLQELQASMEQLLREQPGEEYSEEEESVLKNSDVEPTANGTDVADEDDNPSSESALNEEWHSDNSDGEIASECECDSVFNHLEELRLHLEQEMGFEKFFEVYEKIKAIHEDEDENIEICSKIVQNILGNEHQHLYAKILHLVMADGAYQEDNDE
Method: as §1

T2 sequence (Q5S007 whole entry): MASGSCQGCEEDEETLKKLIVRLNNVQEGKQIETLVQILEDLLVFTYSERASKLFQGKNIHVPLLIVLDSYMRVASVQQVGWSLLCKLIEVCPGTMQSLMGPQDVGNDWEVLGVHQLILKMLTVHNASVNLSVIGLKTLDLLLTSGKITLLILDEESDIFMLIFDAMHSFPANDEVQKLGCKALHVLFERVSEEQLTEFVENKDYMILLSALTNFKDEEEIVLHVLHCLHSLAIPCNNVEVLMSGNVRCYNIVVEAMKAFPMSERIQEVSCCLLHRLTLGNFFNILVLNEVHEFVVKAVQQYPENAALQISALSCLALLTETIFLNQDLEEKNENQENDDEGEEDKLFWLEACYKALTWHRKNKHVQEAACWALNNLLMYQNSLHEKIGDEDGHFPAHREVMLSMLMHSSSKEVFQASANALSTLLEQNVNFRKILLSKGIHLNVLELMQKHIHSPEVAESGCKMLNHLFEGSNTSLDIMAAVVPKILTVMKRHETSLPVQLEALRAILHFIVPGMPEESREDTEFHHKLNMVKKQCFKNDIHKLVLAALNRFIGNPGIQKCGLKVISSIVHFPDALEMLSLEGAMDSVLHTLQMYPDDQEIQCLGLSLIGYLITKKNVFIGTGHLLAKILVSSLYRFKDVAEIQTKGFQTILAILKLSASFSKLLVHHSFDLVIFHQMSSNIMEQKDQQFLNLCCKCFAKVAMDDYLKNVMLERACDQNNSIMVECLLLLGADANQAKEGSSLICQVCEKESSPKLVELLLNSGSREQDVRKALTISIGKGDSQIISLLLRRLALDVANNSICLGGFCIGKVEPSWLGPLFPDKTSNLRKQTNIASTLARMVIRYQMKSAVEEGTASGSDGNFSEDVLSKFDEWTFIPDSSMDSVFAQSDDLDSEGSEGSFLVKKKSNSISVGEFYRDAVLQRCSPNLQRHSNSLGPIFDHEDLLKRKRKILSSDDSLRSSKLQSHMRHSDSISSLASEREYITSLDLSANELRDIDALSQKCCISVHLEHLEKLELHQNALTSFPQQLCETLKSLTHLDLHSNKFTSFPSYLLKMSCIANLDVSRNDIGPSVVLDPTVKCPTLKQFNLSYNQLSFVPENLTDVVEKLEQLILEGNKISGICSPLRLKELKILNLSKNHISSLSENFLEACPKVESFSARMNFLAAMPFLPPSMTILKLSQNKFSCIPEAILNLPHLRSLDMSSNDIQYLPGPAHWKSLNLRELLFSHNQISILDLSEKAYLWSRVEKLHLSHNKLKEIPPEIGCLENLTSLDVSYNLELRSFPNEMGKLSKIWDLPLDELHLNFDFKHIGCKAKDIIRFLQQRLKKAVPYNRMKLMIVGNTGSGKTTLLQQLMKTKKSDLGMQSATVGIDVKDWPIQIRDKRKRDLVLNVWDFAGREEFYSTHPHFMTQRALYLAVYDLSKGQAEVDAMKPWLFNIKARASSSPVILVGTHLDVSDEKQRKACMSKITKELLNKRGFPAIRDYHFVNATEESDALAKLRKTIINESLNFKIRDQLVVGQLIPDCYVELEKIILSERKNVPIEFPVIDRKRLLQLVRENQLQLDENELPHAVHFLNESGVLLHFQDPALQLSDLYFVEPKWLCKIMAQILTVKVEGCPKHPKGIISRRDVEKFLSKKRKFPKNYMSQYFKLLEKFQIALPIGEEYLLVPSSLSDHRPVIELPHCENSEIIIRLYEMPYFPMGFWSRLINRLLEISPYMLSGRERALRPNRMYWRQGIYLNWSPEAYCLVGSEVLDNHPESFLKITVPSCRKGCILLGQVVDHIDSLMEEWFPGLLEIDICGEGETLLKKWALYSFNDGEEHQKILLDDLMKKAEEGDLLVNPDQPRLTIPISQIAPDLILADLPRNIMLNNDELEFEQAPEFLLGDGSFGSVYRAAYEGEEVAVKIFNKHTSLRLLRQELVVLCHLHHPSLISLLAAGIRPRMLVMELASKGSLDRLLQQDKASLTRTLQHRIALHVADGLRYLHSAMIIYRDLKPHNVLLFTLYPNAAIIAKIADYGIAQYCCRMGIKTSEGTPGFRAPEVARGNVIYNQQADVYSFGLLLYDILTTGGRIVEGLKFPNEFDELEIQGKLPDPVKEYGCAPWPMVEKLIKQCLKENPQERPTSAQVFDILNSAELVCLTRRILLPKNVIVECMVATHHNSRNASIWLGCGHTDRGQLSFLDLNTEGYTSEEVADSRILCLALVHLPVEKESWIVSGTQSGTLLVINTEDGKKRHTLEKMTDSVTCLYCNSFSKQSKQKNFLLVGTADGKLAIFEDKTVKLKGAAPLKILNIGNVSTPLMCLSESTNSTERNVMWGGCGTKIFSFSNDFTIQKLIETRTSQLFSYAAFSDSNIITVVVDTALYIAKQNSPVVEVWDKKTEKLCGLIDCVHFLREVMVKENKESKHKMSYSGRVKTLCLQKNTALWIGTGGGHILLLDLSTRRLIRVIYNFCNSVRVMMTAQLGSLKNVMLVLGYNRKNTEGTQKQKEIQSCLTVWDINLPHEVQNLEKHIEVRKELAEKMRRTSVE
T9 sequence (P05771 1-673 isoform P05771-2): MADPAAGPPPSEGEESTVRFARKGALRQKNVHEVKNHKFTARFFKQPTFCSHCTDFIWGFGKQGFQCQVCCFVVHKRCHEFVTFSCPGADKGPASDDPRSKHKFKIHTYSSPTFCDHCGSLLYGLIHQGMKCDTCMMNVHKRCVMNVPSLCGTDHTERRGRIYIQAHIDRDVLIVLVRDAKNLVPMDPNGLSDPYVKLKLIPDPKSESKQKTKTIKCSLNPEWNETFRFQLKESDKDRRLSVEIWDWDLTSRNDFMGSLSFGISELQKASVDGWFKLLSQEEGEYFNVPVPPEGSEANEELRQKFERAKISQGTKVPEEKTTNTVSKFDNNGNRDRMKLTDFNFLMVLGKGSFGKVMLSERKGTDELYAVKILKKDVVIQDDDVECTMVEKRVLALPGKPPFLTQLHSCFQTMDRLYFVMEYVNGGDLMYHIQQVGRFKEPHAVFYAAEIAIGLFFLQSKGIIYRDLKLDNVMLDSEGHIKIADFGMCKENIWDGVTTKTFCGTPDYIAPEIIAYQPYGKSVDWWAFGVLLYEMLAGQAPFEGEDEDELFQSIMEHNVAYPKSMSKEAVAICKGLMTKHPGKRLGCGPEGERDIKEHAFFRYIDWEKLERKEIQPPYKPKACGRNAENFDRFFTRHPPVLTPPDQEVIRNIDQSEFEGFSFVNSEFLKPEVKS
T3 sequence (O75116 whole entry): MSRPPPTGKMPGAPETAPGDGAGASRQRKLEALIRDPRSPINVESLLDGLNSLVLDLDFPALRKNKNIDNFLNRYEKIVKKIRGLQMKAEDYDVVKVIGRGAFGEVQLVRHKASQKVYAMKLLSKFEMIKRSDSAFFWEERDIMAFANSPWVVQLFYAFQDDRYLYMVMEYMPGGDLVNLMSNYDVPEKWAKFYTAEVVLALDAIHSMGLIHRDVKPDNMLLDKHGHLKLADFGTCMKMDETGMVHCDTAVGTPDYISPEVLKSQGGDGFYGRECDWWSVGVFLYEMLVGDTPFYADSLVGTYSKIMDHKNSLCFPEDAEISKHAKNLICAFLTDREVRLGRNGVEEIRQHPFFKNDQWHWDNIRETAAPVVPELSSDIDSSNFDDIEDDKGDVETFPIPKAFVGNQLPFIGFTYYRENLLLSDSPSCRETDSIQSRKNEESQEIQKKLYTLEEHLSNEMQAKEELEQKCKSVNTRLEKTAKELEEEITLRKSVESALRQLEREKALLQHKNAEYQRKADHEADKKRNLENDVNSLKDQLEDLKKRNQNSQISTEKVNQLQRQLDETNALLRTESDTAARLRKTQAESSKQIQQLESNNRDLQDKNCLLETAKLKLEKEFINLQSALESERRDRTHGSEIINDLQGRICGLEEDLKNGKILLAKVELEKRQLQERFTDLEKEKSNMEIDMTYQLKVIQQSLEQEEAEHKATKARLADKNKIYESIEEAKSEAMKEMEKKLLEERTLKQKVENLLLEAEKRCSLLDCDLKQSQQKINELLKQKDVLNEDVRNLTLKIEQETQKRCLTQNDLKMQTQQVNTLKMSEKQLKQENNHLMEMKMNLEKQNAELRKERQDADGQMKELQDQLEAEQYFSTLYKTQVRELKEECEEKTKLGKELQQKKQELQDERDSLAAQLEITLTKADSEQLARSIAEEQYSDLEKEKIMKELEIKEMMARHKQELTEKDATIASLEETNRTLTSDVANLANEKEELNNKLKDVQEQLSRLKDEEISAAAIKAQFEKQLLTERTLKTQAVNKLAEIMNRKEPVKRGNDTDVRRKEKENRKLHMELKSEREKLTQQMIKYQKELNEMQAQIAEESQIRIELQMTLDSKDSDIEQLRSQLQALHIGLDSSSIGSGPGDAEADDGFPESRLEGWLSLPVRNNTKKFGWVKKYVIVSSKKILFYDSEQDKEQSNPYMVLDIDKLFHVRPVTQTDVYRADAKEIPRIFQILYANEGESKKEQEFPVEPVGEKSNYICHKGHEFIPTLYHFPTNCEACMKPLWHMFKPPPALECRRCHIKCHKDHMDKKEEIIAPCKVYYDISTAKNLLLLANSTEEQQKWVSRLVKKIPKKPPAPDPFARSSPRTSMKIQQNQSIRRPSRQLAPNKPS
T7 sequence (P06239 whole entry): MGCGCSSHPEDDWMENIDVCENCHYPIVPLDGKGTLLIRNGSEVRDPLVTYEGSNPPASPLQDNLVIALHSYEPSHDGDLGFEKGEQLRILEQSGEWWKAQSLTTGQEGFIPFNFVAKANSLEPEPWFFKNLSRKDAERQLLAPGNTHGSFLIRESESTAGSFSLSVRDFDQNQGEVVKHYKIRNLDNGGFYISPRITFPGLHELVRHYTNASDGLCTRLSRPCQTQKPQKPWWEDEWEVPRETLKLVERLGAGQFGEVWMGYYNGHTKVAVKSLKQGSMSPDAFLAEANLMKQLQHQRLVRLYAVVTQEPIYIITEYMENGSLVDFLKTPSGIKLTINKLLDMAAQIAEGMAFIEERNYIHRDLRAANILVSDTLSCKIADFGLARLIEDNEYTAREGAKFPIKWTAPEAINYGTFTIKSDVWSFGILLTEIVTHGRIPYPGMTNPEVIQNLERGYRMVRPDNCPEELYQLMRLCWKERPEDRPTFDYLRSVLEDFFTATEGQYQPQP

Structure (SMILES)	inhibition at 0.1 µM [1] [%]	inhibition at 0.1 µM [2] [%]	inhibition at 0.1 µM [3] [%]	inhibition at 0.1 µM [4] [%]	inhibition at 0.1 µM [5] [%]	inhibition at 0.1 µM [6] [%]	inhibition at 0.1 µM [7] [%]	inhibition at 0.1 µM [8] [%]	inhibition at 0.1 µM [9] [%]	inhibition at 0.1 µM [10] [%]	inhibition at 0.1 µM [11] [%]
c1ccc2c(-c3cnn4cc(-c5ccc(N6CCNCC6)cc5)cnc34)ccnc2c1 [LDN-193189, reference compound]	11.3	5.16	13.1	-10.3	-16.5	-10.4	25.4	28.1	1.8	67.7	-11.9
CN1CCC(=O)NCCNc2ccn3ncc(c3n2)-c2cccc(c2)C1 [OD29]	-3.89	13.8	-0.26	-5.03	21.5	5.09	35.6	24.6	3.7	92.5	12.6
CN1CCc2cccc(c2)Nc2nccc(n2)N2CCCc3cc(ccc32)C1 [OD16]	-6.59	18.4	42.6	-16.9	-24.9	17	6.7	-31	15.9	90.2	-6.3
